Test results taken from patent US20180065917A1, “IMMUNE CHECKPOINT INHIBITORS, COMPOSITIONS AND METHODS THEREOF” (Polaris Pharmaceuticals, Inc., priority 2016, published 2018).
Counter-ions that a name gives are not always drawn.

target: T1, PD-L1/PD-1 complex formation (Homo sapiens, UniProt Q9NZQ7); assay: PD-L1/PD-1 Interaction Assay (ELISA platform); format: binding; conditions: human PD-1-Fc coated plates, PD-L1-Fc-biotin 0.1 μg/ml, compounds pre-incubated 2 hours
T1 construct: purchased BPS Bioscience
Protocol: The ability of compounds to block PD-L1/PD-1 complex formation was evaluated using biochemical interaction assay based on the ELISA platform.
EIA/RIA high binding 96-well plates (Costar) were coated with human PD-1-Fc protein diluted in PBS to 0.5 μg/ml overnight at 4° C. The PD-1-Fc coated plates were washed in PBST and blocked in blocking buffer (2% BSA in PBST). Serially diluted compounds were pre-incubated with PD-L1-Fc-biotin (0.1 μg/ml final) for 2 hours on a shaker at room temperature. The PD-1-Fc coated plates were washed with PBST and solutions containing PD-L1 and compounds were added to the plates. The PD-1-Fc coated plates were incubated with PD-L1 and compound solution for 2 hours on a shaker at room temperature. After the incubation unbound PD-L1 was washed away with PBST and plates were incubated with the blocking buffer for 10 minutes. The bound PD-L1-Fc-biotin was detected with streptavidin-HRP and TMB substrate. The plates were read at OD450 nm in a plate reader (i3 from Molecular Devices) and percentages of inhibition of PD-L1/PD-1 complex formation were calculated.
PD-1-Fc protein was made at Polaris and PD-L1-Fc was purchased from BPS Bioscience.

T1 sequence (Q9NZQ7 19-239 limits assumed, one chain of several): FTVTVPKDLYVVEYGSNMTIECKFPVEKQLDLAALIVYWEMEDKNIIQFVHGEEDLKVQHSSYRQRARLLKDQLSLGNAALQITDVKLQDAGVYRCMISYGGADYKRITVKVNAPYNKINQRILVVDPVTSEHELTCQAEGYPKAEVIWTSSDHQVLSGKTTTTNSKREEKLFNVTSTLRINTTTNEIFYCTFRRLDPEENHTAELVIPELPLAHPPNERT

SMILES | IC50
Cc1c(COc2ccc(CN3CCCC[C@@H]3C(=O)O)cc2Br)cccc1-c1cccc(COc2ccc(CN3CCCC[C@@H]3C(=O)O)cc2Br)c1C [Example 2, (2R,2′R)-1,1′-(((((2,2′-dimethyl-[1,1′-biphenyl]-3,3′-diyl)bis(methylene))bis(oxy))bis(3-bromo-4,1-phenylene))bis(methylene))bis(piperidine-2-carboxylic acid)] | 11 to 100 nM
COc1nc(OCc2cccc(-c3cccc(COc4ccc(CNCCNC(C)=O)c(OC)n4)c3C)c2C)ccc1CNCCNC(C)=O [Example 3, N,N′-(((((((2,2′-Dimethyl-[1,1′-biphenyl]-3,3′-diyl)bis(methylene))bis(oxy))bis(2-methoxypyridine-6,3-diyl))bis(methylene))bis(azanediyl))bis(ethane-2,1-diyl))diacetamide] | 11 to 100 nM
COC(=O)[C@@H]1CCCCN1Cc1ccc(OCc2cccc(-c3cccc(COc4ccc(CN5CCCC[C@H]5C(=O)OC)cc4Br)c3C)c2C)c(Br)c1 [Example 4, Dimethyl 1,1′-(((((2,2′-dimethyl-[1,1′-biphenyl]-3,3′-diyl)bis(methylene))bis(oxy))bis(3-bromo-4,1-phenylene))bis(methylene))(2S,2′S)-bis(piperidine-2-carboxylate)] | > 30000 nM
Cc1c(COc2ccc(CNCCO)cc2Br)cccc1-c1cccc(COc2ccc(CNCCO)cc2Br)c1C [Example 5, 2,2′-((((((2,2′-Dimethyl-[1,1′-biphenyl]-3,3′-diyl)bis(methylene))bis(oxy))bis(3-bromo-4,1-phenylene))bis(methylene))bis(azanediyl))bis(ethan-1-ol) di-trifluoroacetic acid salt] | 0.1 to 10 nM
Cc1c(COc2ccc(CNC(C)(C)C(=O)O)cc2Br)cccc1-c1cccc(COc2ccc(CNC(C)(C)C(=O)O)cc2Br)c1C [Example 14, 2,2′-((((((2,2′-Dimethyl-[1,1′-biphenyl]-3,3′-diyl)bis(methylene))bis(oxy))bis(3-bromo-4,1-phenylene))bis(methylene))bis(azanediyl))bis(2-methylpropanoic acid) di-trifluoroacetic acid salt] | 0.1 to 10 nM
Cc1c(COc2ccc(CN[C@@H](C)C(=O)O)cc2Br)cccc1-c1cccc(COc2ccc(CN[C@@H](C)C(=O)O)cc2Br)c1C [Example 15, (2S,2′S)-2,2′-((((((2,2′-Dimethyl-[1,1′-biphenyl]-3,3′-diyl)bis(methylene))bis(oxy))bis(3-bromo-4,1-phenylene))bis(methylene))bis(azanediyl))dipropionic acid di-trifluoroacetic acid salt] | 0.1 to 10 nM
Cc1c(COc2ccc(CN[C@H](C)C(=O)O)cc2Br)cccc1-c1cccc(COc2ccc(CN[C@H](C)C(=O)O)cc2Br)c1C [Example 16, (2R,2′R)-2,2′-((((((2,2′-Dimethyl-[1,1′-biphenyl]-3,3′-diyl)bis(methylene))bis(oxy))bis(3-bromo-4,1-phenylene))bis(methylene))bis(azanediyl))dipropionic acid di-trifluoroacetic acid salt] | 11 to 100 nM
Cc1c(COc2ccc(CN[C@H](CO)C(=O)O)cc2Br)cccc1-c1cccc(COc2ccc(CN[C@H](CO)C(=O)O)cc2Br)c1C [Example 17, (2R,2′R)-2,2′-((((((2,2′-Dimethyl-[1,1′-biphenyl]-3,3′-diyl)bis(methylene))bis(oxy))bis(3-bromo-4,1-phenylene))bis(methylene))bis(azanediyl))bis(3-hydroxypropanoic acid) di-trifluoroacetic acid salt] | 0.1 to 10 nM
Cc1c(COc2ccc(CN[C@@H](C(=O)O)[C@H](C)O)cc2Br)cccc1-c1cccc(COc2ccc(CN[C@@H](C(=O)O)[C@H](C)O)cc2Br)c1C [Example 18, (2R,2′R,3S,3′S)-2,2′-((((((2,2′-Dimethyl-[1,1′-biphenyl]-3,3′-diyl)bis(methylene))bis(oxy))bis(3-bromo-4,1-phenylene))bis(methylene))bis(azanediyl))bis(3-hydroxybutanoic acid) di-trifluoroacetic acid salt] | 0.1 to 10 nM
Cc1c(COc2ccc(CN3CCCC[C@H]3C(N)=O)cc2Br)cccc1-c1cccc(COc2ccc(CN3CCCC[C@H]3C(N)=O)cc2Br)c1C [Example 23, (2S,2′S)-1,1′-(((((2,2′-Dimethyl-[1,1′-biphenyl]-3,3′-diyl)bis(methylene))bis(oxy))bis(3-bromo-4,1-phenylene))bis(methylene))bis(piperidine-2-carboxamide)] | 1010 to 30000 nM
Cc1c(COc2ccc(CN3CCCC[C@H]3C(=O)NCCO)cc2Br)cccc1-c1cccc(COc2ccc(CN3CCCC[C@H]3C(=O)NCCO)cc2Br)c1C [Example 24, (2S,2′S)-1,1′-(((((2,2′-Dimethyl-[1,1′-biphenyl]-3,3′-diyl)bis(methylene))bis(oxy))bis(3-bromo-4,1-phenylene))bis(methylene))bis(N-(2-hydroxyethyl)piperidine-2-carboxamide)] | 110 to 1000 nM
Cc1c(COc2ccc(CN3CCCC[C@H]3C(=O)NCCN(C)C)cc2Br)cccc1-c1cccc(COc2ccc(CN3CCCC[C@H]3C(=O)NCCN(C)C)cc2Br)c1C [Example 25, (2S,2′S)-1,1′-(((((2,2′-Dimethyl-[1,1′-biphenyl]-3,3′-diyl)bis(methylene))bis(oxy))bis(3-bromo-4,1-phenylene))bis(methylene))bis(N-(2-(dimethylamino)ethyl)piperidine-2-carboxamide)] | 1010 to 30000 nM

The next lines start with the values.

IC50 | SMILES
11 to 100 nM | C#Cc1cc(CN2CCCC[C@H]2C(=O)O)ccc1OCc1cccc(-c2cccc(COc3ccc(CN4CCCC[C@H]4C(=O)O)cc3C#C)c2C)c1C [Example 26, (2S,2′S)-1,1′-(((((2,2′-Dimethyl-[1,1′-biphenyl]-3,3′-diyl)bis(methylene))bis(oxy))bis(3-ethynyl-4,1-phenylene))bis(methylene))bis(piperidine-2-carboxylic acid) di-trifluoroacetic acid salt]
110 to 1000 nM | CCc1cc(CN2CCCC[C@H]2C(=O)O)ccc1OCc1cccc(-c2cccc(COc3ccc(CN4CCCC[C@H]4C(=O)O)cc3CC)c2C)c1C [Example 27, (2S,2′S)-1,1′-(((((2,2′-Dimethyl-[1,1′-biphenyl]-3,3′-diyl)bis(methylene))bis(oxy))bis(3-ethyl-4,1-phenylene))bis(methylene))bis(piperidine-2-carboxylic acid) di-trifluoroacetic acid salt]
110 to 1000 nM | CSc1cc(CN2CCCC[C@H]2C(=O)O)ccc1OCc1cccc(-c2cccc(COc3ccc(CN4CCCC[C@H]4C(=O)O)cc3SC)c2C)c1C [Example 28, (2S,2′S)-1,1′-(((((2,2′-Dimethyl-[1,1′-biphenyl]-3,3′-diyl)bis(methylene))bis(oxy))bis(3-(methylthio)-4,1-phenylene))bis(methylene))bis(piperidine-2-carboxylic acid) di-trifluoroacetic acid salt]
0.1 to 10 nM | Cc1c(COc2ccc(CN3CCCC[C@H]3C(=O)O)cc2C(F)F)cccc1-c1cccc(COc2ccc(CN3CCCC[C@H]3C(=O)O)cc2C(F)F)c1C [Example 29, (2S,2′S)-1,1′-(((((2,2′-Dimethyl-[1,1′-biphenyl]-3,3′-diyl)bis(methylene))bis(oxy))bis(3-(difluoromethyl)-4,1-phenylene))bis(methylene))bis(piperidine-2-carboxylic acid) di-trifluoroacetic acid salt]
110 to 1000 nM | Cc1c(COc2ccc(CN(CC(=O)O)CC(=O)O)cc2Br)cccc1-c1cccc(COc2ccc(CN(CC(=O)O)CC(=O)O)cc2Br)c1C [Example 30, 2,2′,2″,2′″-((((((2,2′-Dimethyl-[1,1′-biphenyl]-3,3′-diyl)bis(methylene))bis(oxy))bis(3-bromo-4,1-phenylene))bis(methylene))bis(azanetriyl))tetraacetic acid di-trifluoroacetic acid salt]
11 to 100 nM | Cc1c(COc2ccc(CN(CCO)CCO)cc2Br)cccc1-c1cccc(COc2ccc(CN(CCO)CCO)cc2Br)c1C [Example 31, 2,2′,2″,2′″-((((((2,2′-Dimethyl-[1,1′-biphenyl]-3,3′-diyl)bis(methylene))bis(oxy))bis(3-bromo-4,1-phenylene))bis(methylene))bis(azanetriyl))tetrakis(ethan-1-ol) di-trifluoroacetic acid salt]
0.1 to 10 nM | Cc1c(COc2ccc(CNC(CO)CO)cc2Br)cccc1-c1cccc(COc2ccc(CNC(CO)CO)cc2Br)c1C [Example 32, 2,2′-((((((2,2′-Dimethyl-[1,1′-biphenyl]-3,3′-diyl)bis(methylene))bis(oxy))bis(3-bromo-4,1-phenylene))bis(methylene))bis(azanediyl))bis(propane-1,3-diol) di-trifluoroacetic acid salt]
0.1 to 10 nM | Cc1c(COc2ccc(CNC(C)(CO)CO)cc2Br)cccc1-c1cccc(COc2ccc(CNC(C)(CO)CO)cc2Br)c1C [Example 33, 2,2′-((((((2,2′-Dimethyl-[1,1′-biphenyl]-3,3′-diyl)bis(methylene))bis(oxy))bis(3-bromo-4,1-phenylene))bis(methylene))bis(azanediyl))bis(2-methylpropane-1,3-diol) di-trifluoroacetic acid salt]
